Data: ChEMBL document CHEMBL1909570, “Synthesis and antibacterial activity of N4-mono alkyl derivatives of novel glycopeptide LYV07ww01” (2011)
≈ marks a conversion by molar mass, not a printed value.

Columns and labels:
Type in all cases: functional
Enterococcus faecalis [1] = assay: microbe, parasite or virus in culture; details: ATCC 29212
Description: Antibacterial activity against vancomycin-sensitive Enterococcus faecalis ATCC 29212 by CLSI agar microdilution method

[2] = tested on: Staphylococcus epidermidis; assay: Antibacterial activity against Staphylococcus epidermidis 26069 by CLSI agar microdilution method
Enterococcus faecium [3] = assay: Antibacterial activity against Enterococcus faecium 32220 by CLSI agar microdilution method
Streptococcus pneumoniae [4] = assay: Antibacterial activity against penicillin-resistant Streptococcus pneumoniae MSPN 0003 by CLSI broth microdilution method
Streptococcus pneumoniae [5] = assay: Antibacterial activity against Streptococcus pneumoniae 31002 by CLSI agar microdilution method
Staphylococcus = assay: Antibacterial activity against Staphylococcus albus 26101 by CLSI agar microdilution method
Enterococcus faecium [6] = assay: Antibacterial activity against vancomycin-resistant Enterococcus faecium MEFA 0039 by CLSI agar microdilution method
Staphylococcus aureus = assay: Antibacterial activity against Staphylococcus aureus 26003 by CLSI agar microdilution method
Streptococcus pneumoniae [7] = assay: Antibacterial activity against penicillin-intermediate Streptococcus pneumoniae ATCC 49619 by CLSI broth microdilution method
Streptococcus = assay: Antibacterial activity against Streptococcus gamma 32206 by CLSI agar microdilution method
Enterococcus faecium [8] = assay: Antibacterial activity against vancomycin-sensitive Enterococcus faecium ATCC 35667 by CLSI agar microdilution method
Enterococcus faecalis [9] = assay: microbe, parasite or virus in culture; details: ATCC 51299
Description: Antibacterial activity against vancomycin-resistant Enterococcus faecalis ATCC 51299 by CLSI agar microdilution method

SMILES	MIC [2] [µg/mL]	MIC (Enterococcus faecium [3]) [µg/mL]	MIC (Streptococcus pneumoniae [5]) [µg/mL]	MIC (Staphylococcus) [µg/mL]	MIC (Staphylococcus aureus) [µg/mL]	MIC (Streptococcus) [µg/mL]	MIC (Enterococcus faecalis [1]) [µg/mL]	MIC (Streptococcus pneumoniae [4]) [µg/mL]	MIC (Enterococcus faecium [6]) [µg/mL]	MIC (Streptococcus pneumoniae [7]) [µg/mL]	MIC (Enterococcus faecium [8]) [µg/mL]	MIC (Enterococcus faecalis [9]) [µg/mL]
CN[C@H](CC(C)C)C(=O)N[C@H]1C(=O)N[C@@H](CC(N)=O)C(=O)N[C@H]2C(=O)N[C@H]3C(=O)N[C@H](C(=O)N[C@H](C(=O)O)c4cc(O)cc(O)c4-c4cc3ccc4O)[C@H](O)c3ccc(c(Cl)c3)Oc3cc2cc(c3O[C@@H]2O[C@H](CO)[C@@H](O)[C@H](O)[C@H]2O[C@H]2C[C@](C)(N)[C@H](O)[C@H](C)O2)Oc2ccc(cc2Cl)[C@H]1O.Cl [VANCOMYCIN HYDROCHLORIDE]	> 25	6.25	0.39	3.13	0.78	6.25	1	0.25	> 32	0.125	0.25	8
CCCCCCOc1ccc(CN[C@@]2(C)C[C@H](O[C@H]3[C@H](Oc4c5cc6cc4Oc4ccc(cc4Cl)[C@@H](O[C@H]4C[C@](C)(N)[C@H](O)[C@H](C)O4)[C@@H]4NC(=O)[C@H](NC(=O)[C@@H]6NC(=O)[C@H](CC(N)=O)NC(=O)[C@H](NC(=O)[C@@H](CC(C)C)NC)[C@H](O)c6ccc(c(Cl)c6)O5)c5ccc(O)c(c5)-c5c(O)cc(O)cc5[C@H](C(=O)O)NC4=O)O[C@H](CO)[C@@H](O)[C@@H]3O)O[C@@H](C)[C@H]2O)cc1	> 25	6.25 (≈ 3.51 µM)	3.13 (≈ 1.76 µM)	6.25 (≈ 3.51 µM)	6.25 (≈ 3.51 µM)	3.13 (≈ 1.76 µM)	–	–	–	–	–	–
CCCCCCCCCOc1ccc(CN[C@@]2(C)C[C@H](O[C@H]3[C@H](Oc4c5cc6cc4Oc4ccc(cc4Cl)[C@@H](O[C@H]4C[C@](C)(N)[C@H](O)[C@H](C)O4)[C@@H]4NC(=O)[C@H](NC(=O)[C@@H]6NC(=O)[C@H](CC(N)=O)NC(=O)[C@H](NC(=O)[C@@H](CC(C)C)NC)[C@H](O)c6ccc(c(Cl)c6)O5)c5ccc(O)c(c5)-c5c(O)cc(O)cc5[C@H](C(=O)O)NC4=O)O[C@H](CO)[C@@H](O)[C@@H]3O)O[C@@H](C)[C@H]2O)cc1	> 25	12.5 (≈ 6.85 µM)	12.5 (≈ 6.85 µM)	25 (≈ 13.7 µM)	12.5 (≈ 6.85 µM)	12.5 (≈ 6.85 µM)	–	–	–	–	–	–
CCCCCN[C@@]1(C)C[C@H](O[C@H]2[C@H](Oc3c4cc5cc3Oc3ccc(cc3Cl)[C@@H](O[C@H]3C[C@](C)(N)[C@H](O)[C@H](C)O3)[C@@H]3NC(=O)[C@H](NC(=O)[C@@H]5NC(=O)[C@H](CC(N)=O)NC(=O)[C@H](NC(=O)[C@@H](CC(C)C)NC)[C@H](O)c5ccc(c(Cl)c5)O4)c4ccc(O)c(c4)-c4c(O)cc(O)cc4[C@H](C(=O)O)NC3=O)O[C@H](CO)[C@@H](O)[C@@H]2O)O[C@@H](C)[C@H]1O	> 25	> 25	0.39 (≈ 0.235 µM)	3.13 (≈ 1.88 µM)	1.56 (≈ 0.938 µM)	0.78 (≈ 0.469 µM)	–	–	–	–	–	–

More lines, main results first:

MIC [2] [µg/mL]	MIC (Enterococcus faecium [3]) [µg/mL]	MIC (Streptococcus pneumoniae [5]) [µg/mL]	MIC (Staphylococcus) [µg/mL]	MIC (Staphylococcus aureus) [µg/mL]	MIC (Streptococcus) [µg/mL]	SMILES	MIC (Enterococcus faecalis [1]) [µg/mL]	MIC (Streptococcus pneumoniae [4]) [µg/mL]	MIC (Enterococcus faecium [6]) [µg/mL]	MIC (Streptococcus pneumoniae [7]) [µg/mL]	MIC (Enterococcus faecium [8]) [µg/mL]	MIC (Enterococcus faecalis [9]) [µg/mL]
> 25	1.56 (≈ 0.9 µM)	0.78 (≈ 0.45 µM)	1.56 (≈ 0.9 µM)	1.56 (≈ 0.9 µM)	6.25 (≈ 3.61 µM)	CN[C@H](CC(C)C)C(=O)N[C@H]1C(=O)N[C@@H](CC(N)=O)C(=O)N[C@H]2C(=O)N[C@H]3C(=O)N[C@H](C(=O)N[C@@H](C(=O)O)c4cc(O)cc(O)c4-c4cc3ccc4O)[C@H](O[C@H]3C[C@](C)(N)[C@H](O)[C@H](C)O3)c3ccc(c(Cl)c3)Oc3cc2cc(c3O[C@@H]2O[C@H](CO)[C@@H](O)[C@H](O)[C@H]2O[C@H]2C[C@](C)(NCc3cccc4ccccc34)[C@H](O)[C@H](C)O2)Oc2ccc(cc2Cl)[C@H]1O	–	–	–	–	–	–
12.5 (≈ 7.28 µM)	3.13 (≈ 1.82 µM)	1.56 (≈ 0.909 µM)	3.13 (≈ 1.82 µM)	3.13 (≈ 1.82 µM)	1.56 (≈ 0.909 µM)	CN[C@H](CC(C)C)C(=O)N[C@H]1C(=O)N[C@@H](CC(N)=O)C(=O)N[C@H]2C(=O)N[C@H]3C(=O)N[C@H](C(=O)N[C@@H](C(=O)O)c4cc(O)cc(O)c4-c4cc3ccc4O)[C@H](O[C@H]3C[C@](C)(N)[C@H](O)[C@H](C)O3)c3ccc(c(Cl)c3)Oc3cc2cc(c3O[C@@H]2O[C@H](CO)[C@@H](O)[C@H](O)[C@H]2O[C@H]2C[C@](C)(NCc3ccc(Cl)cc3)[C@H](O)[C@H](C)O2)Oc2ccc(cc2Cl)[C@H]1O	–	–	–	–	–	–
12.5 (≈ 7.2 µM)	1.56 (≈ 0.898 µM)	1.56 (≈ 0.898 µM)	3.13 (≈ 1.8 µM)	1.56 (≈ 0.898 µM)	12.5 (≈ 7.2 µM)	CN[C@H](CC(C)C)C(=O)N[C@H]1C(=O)N[C@@H](CC(N)=O)C(=O)N[C@H]2C(=O)N[C@H]3C(=O)N[C@H](C(=O)N[C@@H](C(=O)O)c4cc(O)cc(O)c4-c4cc3ccc4O)[C@H](O[C@H]3C[C@](C)(N)[C@H](O)[C@H](C)O3)c3ccc(c(Cl)c3)Oc3cc2cc(c3O[C@@H]2O[C@H](CO)[C@@H](O)[C@H](O)[C@H]2O[C@H]2C[C@](C)(NCc3cc(F)c(F)cc3F)[C@H](O)[C@H](C)O2)Oc2ccc(cc2Cl)[C@H]1O	–	–	–	–	–	–
